The record followed here is patent publication US20250186405A1, “Compound For Use In Treating Narcolepsy” (Alkermes, Inc., priority 2023, published 2025).

Like-named read-outs stand apart in the source and are kept apart here.

Series [1] can be described thus: Oral PK of micronized Compound A, powder-in-capsule vs tablet, two particle sizes. It counts as in vivo, male Beagle dogs. Particulars: male, Beagle, dog, plasma. How it is done: A non-GLP study was conducted in male Beagle dogs to compare the Compound A plasma exposure of powder-in-capsule (PIC) versus tablet formulation after the administration of single oral doses of micronized Compound A. Two different particle sizes were tested with the following objectives: • 1. To compare the oral plasma exposure of micronized Compound A (12 micron Dv90 particle size) after the administration of 20 mg of Compound A powder-in-capsule vs 20 mg of Compound A in four tablets of 5 mg each. • 2. To compare the oral plasma exposure of 12 micron and 32 micron Dv90 particle size of 20 mg micronized Compound A administered in four tablets of 5 mg each. • 3. To evaluate the dose-linearity of Compound A by comparing the oral plasma exposure of Compound A following the oral administration of 5 mg (one tablet) versus 20 mg (four tablets) of Compound A.
The pharmacokinetic analysis of concentrations and concentration-time data are summarized in tabular form, below, using descriptive statistics. Concentration data were summarized according to nominal sampling times. Plasma concentrations below the lower limit of assay quantification (BLOQ) were not included in the computation of mean concentration values. Pharmacokinetic parameters for individual animals were estimated using the non-compartmental analysis (NCA) using Dotmatics Studies tool.
The absolute extravascular bioavailability (F %) were calculated using the following formula: F %= [(AUC0-∞(extravascular)×Dose(intravenous(IV)))/(AUC0-∞(intravenous(IV))×Dose(extravascular))]×100 Where the “extravascular” represents any of subcutaneous (SC), intraperitoneal (IP) or oral (PO) route of administration.
The F % is calculated for each subject in case the same animals were administered with both intravenous and extravascular dose, then the average is reported with the standard error; otherwise, F % is calculated using the mean values without reporting a standard deviation in case the subjects of intravenous and extravascular profiles are different. Pharmacokinetic parameters were summarized by dosing group, route of administration, formulation, etc. using descriptive statistics.

The subject of series [2] is non-sleep deprived healthy volunteers. Briefly: Part 1 SAD: quantitative EEG (beta band power) and KSS biomarkers. It counts as in vivo, human. Particulars: single doses, resting wakeful state. How it is done:
On Day −1, approximately 25 hours prior to study drug administration (on Day 1), baseline assessments for qEEG began and were collected for approximately 12 hours.
At time points within Part 1 of the study, qEEG assessment was performed. The subject remained still in a seated or supine position during the EEG acquisition time points. Each EEG acquisition continued for a total of 10 minutes: initial 5 minutes with eyes closed followed by 5 minutes with eyes open looking at a fixation point.
The PD parameters in the SAD evaluation (e.g., changes from baseline in QTcF, power of qEEG frequency bands, KSS) were summarized using descriptive statistics for each time point by dose level.
As discussed above in Example sections 4.10.3.2, 4.13.4, and 4.15.1, pharmacodynamic parameters in the SAD evaluation (e.g., changes from baseline in QTcF, power of qEEG frequency bands, KSS) were measured in non-sleep deprived healthy volunteers. […] The dots indicate the average post-dose measurements at each timepoint and the shaded areas show the confidence intervals. The data points representing Compound A cluster in the area associated with both higher beta power and increased alertness relative to placebo, with little overlap between the two groups.

Usually bioavailability stands for the share of a dose that reaches the circulation, judged against a reference dose that is usually intravenous. By Tmax is commonly meant the time from dosing to the highest level. One may read the Cmax as the peak of the concentration-time curve. For the compound `CS(=O)(=O)N[C@H]1CCCN2C(=O)COc3ccccc3C3CCC(CC3)OCC12` (stereo partly drawn) [Compound A, N-[(4S,4aR,7α,10α)-1,2,3,4,4a,5,7,8,9,10,16,17-dodecahydro-17-oxo-7,10-ethanopyrido[1,2-d][1,7,4]benzodioxaazacyclotridecin-4-yl]methanesulfonamide], the bioavailability was 55% in series [1] (5 mg, one 5 mg tablet, 12 micron Dv90, read-out: Oral bioavailability (F %)); 26 to 29% in series [1] (20 mg, 20 mg PIC and 4 tablets of 5 mg, 12 and 32 micron Dv90, read-out: F % (absolute oral bioavailability), range); 29% in series [1] (20 mg, four 5 mg tablets (20 mg), 12 micron Dv90, read-out: Oral bioavailability (F %)). Besides, the Tmax in series [1] (20 mg PIC and 4 tablets of 5 mg, 12 and 32 micron Dv90) was approximately 3 h. Also, in series [1] (20 mg PIC and 4 tablets of 5 mg, 12 and 32 micron Dv90, read-out: AUC0-∞, range), the AUC(0-inf) was 1570 to 1730 ng·h/mL. Further, the maximum concentration (Cmax) in series [1] (20 mg PIC and 4 tablets of 5 mg, 12 and 32 micron Dv90, read-out: Cmax, range) lay within 230 to 270 ng/mL. In addition, in series [1] (20 mg PIC and 4 tablets of 5 mg, 12 and 32 micron Dv90, read-out: terminal t1/2 (converted)), the half-life was approximately 3 h. In series [2], the “qEEG beta band signal, change from baseline” value is “Dose-dependent increases in beta band signal were observed”.
